In PMC12892976, “Alkylation-based optimization of antifungal FPPS inhibitors yields a potent, broad-spectrum lipophilic zoledronate derivative” (mBio, 2025):
In brackets after ≈: the same amount, converted by molar mass.

Legend:
Cryptococcus tetragattii [1] = experiment: MIC broth microdilution (CLSI); type: cell-based; settings: Cryptococcus tetragattii WM779
Protocol: (§1) Antifungal susceptibility was determined by broth microdilution according to the CLSI guidelines described in M27-Ed4 ([16]).

[2] = system: Cryptococcus deneoformans; experiment: MIC broth microdilution (CLSI); type: cell-based; settings: Cryptococcus deneoformans JEC21
Protocol: as §1

Fusarium oxysporum = experiment: MIC broth microdilution (CLSI); type: cell-based; settings: Fusarium oxysporum 07-200-3012
Protocol: as §1

Lomentospora prolificans [3] = experiment: MIC broth microdilution (CLSI); type: cell-based; settings: Lomentospora prolificans 80-16-101-2445
Protocol: as §1

Pichia kudriavzevii [4] = experiment: MIC broth microdilution (CLSI); type: cell-based; settings: Pichia kudriavzavii ATCC 6258
Protocol: (§2) Antifungal susceptibility was determined by broth microdilution according to the CLSI guidelines described in M27-Ed4 ([16]). […] MFC was determined by back-plating drug-treated cultures from MIC broths onto SDA plates. The MFC was defined as the lowest concentration from which no colonies could be cultured.

Candida auris [5] = experiment: MIC broth microdilution (CLSI); type: cell-based; settings: Candida auris CDC-0384
Protocol: as §1

Candida parapsilosis = experiment: MIC broth microdilution (CLSI); type: cell-based; settings: Candida parapsilosis ATCC 22018
Protocol: as §2

Candida tropicalis [6] = experiment: MIC broth microdilution (CLSI); type: cell-based; settings: Candida tropicalis M230640
Protocol: as §1

Candida dubliniensis [7] = experiment: MIC broth microdilution (CLSI); type: cell-based; settings: Candida dubliniensis M230642
Protocol: as §1

Aspergillus udagawae [8] = experiment: MIC broth microdilution (CLSI); type: cell-based; settings: Aspergillus udagawae 8G81
Protocol: as §1

Aspergillus felis [9] = experiment: MIC broth microdilution (CLSI); type: cell-based; settings: Aspergillus felis IHE87256683D6
Protocol: as §1

Epidermophyton floccosum = experiment: MIC broth microdilution (CLSI); type: cell-based; settings: Epidermophyon floccosum R-113
Protocol: as §1

Paraphyton cookei [10] = experiment: MIC broth microdilution (CLSI); type: cell-based; settings: Paraphyton cookei R-639
Protocol: as §1

Nannizzia nana [11] = experiment: MIC broth microdilution (CLSI); type: cell-based; settings: Nannizzia nana R-133
Protocol: as §1

Mucor circinelloides = experiment: checkerboard drug interaction (FICI, MICc); type: cell-based;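 note: simplified diagonal checkerboard screen pairing antifungals with FPPS inhibitors, FICI calculated under the Loewe additivity model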
Protocol: (§3) Drug interactions between antifungals and FPPS inhibitors were investigated using a simplified checkerboard diagonal screening method ([45]). […] FICIs were determined according to the Loewe additivity model ([17]).

Rhizopus oryzae = experiment: checkerboard drug interaction (FICI, MICc); type: cell-based;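 note: simplified diagonal checkerboard screen pairing antifungals with FPPS inhibitors, FICI calculated under the Loewe additivity model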
Protocol: as §3

[12] = system: Cryptococcus bacillisporus; experiment: checkerboard drug interaction (FICI, MICc); type: cell-based;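 note: interaction of antifungals with FPPS inhibitors assessed by a simplified diagonal checkerboard screen, with FICI computed under the Loewe additivity model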
Protocol: as §3

Cryptococcus tetragattii [13] = experiment: checkerboard drug interaction (FICI, MICc); type: cell-based;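 note: simplified diagonal checkerboard screen pairing antifungals with FPPS inhibitors, with FICI calculated under the Loewe additivity model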
Protocol: as §3

Fusarium solani = experiment: checkerboard drug interaction (FICI, MICc); type: cell-based;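 note: simplified diagonal checkerboard screen pairing antifungals with FPPS inhibitors, FICI derived under the Loewe additivity model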
Protocol: as §3

Pichia kudriavzevii [14] = experiment: checkerboard drug interaction (FICI, MICc); type: cell-based;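 note: antifungal plus FPPS inhibitor interactions tested in a simplified diagonal checkerboard screen, with FICI calculated under the Loewe additivity model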
Protocol: as §3

Candida auris [15] = experiment: checkerboard drug interaction (FICI, MICc); type: cell-based;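 note: simplified diagonal checkerboard screen pairing antifungals with FPPS inhibitors, with FICI computed under the Loewe additivity model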
Protocol: as §3

Candida tropicalis [16] = experiment: checkerboard drug interaction (FICI, MICc); type: cell-based;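 note: simplified diagonal checkerboard screen of antifungal plus FPPS inhibitor combinations, with FICI computed by the Loewe additivity model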
Protocol: as §3

Candida dubliniensis [17] = experiment: checkerboard drug interaction (FICI, MICc); type: cell-based;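 note: simplified diagonal checkerboard screen pairing antifungals with FPPS inhibitors, FICI calculated under the Loewe additivity model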
Protocol: as §3

Aspergillus terreus = experiment: checkerboard drug interaction (FICI, MICc); type: cell-based;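 note: simplified diagonal checkerboard screen pairing antifungals with FPPS inhibitors, FICI derived by the Loewe additivity model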
Protocol: as §3

Aspergillus udagawae [18] = experiment: checkerboard drug interaction (FICI, MICc); type: cell-based;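 note: simplified diagonal checkerboard screen pairing antifungals with FPPS inhibitors, FICI calculated using the Loewe additivity model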
Protocol: as §3

Aspergillus lentulus = experiment: checkerboard drug interaction (FICI, MICc); type: cell-based;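 note: simplified diagonal checkerboard screen pairing antifungals with FPPS inhibitors, with the interaction index calculated under the Loewe additivity model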
Protocol: as §3

Aspergillus felis [19] = experiment: checkerboard drug interaction (FICI, MICc); type: cell-based;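 note: simplified diagonal checkerboard screen pairing antifungals with FPPS inhibitors, FICI calculated under the Loewe additivity model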
Protocol: as §3

Microsporum canis [20] = experiment: checkerboard drug interaction (FICI, MICc); type: cell-based
Protocol: as §3

Nannizzia nana [21] = experiment: checkerboard drug interaction (FICI, MICc); type: cell-based
Protocol: as §3

Microsporum canis [22] = experiment: MIC broth microdilution (CLSI); settings: Microsporum canis R-232
Protocol: as §1

Trichophyton tonsurans = experiment: MIC broth microdilution (CLSI); settings: Trichophyton tonsurans R-168
Protocol: as §1

Lomentospora prolificans [23] = experiment: checkerboard drug interaction (FICI, MICc)
Protocol: as §3

Aspergillus parafelis = experiment: checkerboard drug interaction (FICI, MICc)
Protocol: as §3

Paraphyton cookei [24] = experiment: checkerboard drug interaction (FICI, MICc);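 note: simplified diagonal checkerboard screen pairing an antifungal with an FPPS inhibitor, FICI computed under the Loewe additivity model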
Protocol: as §3

Nannizzia gypsea = experiment: checkerboard drug interaction (FICI, MICc);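 note: simplified diagonal checkerboard screen pairing antifungals with FPPS inhibitors, FICI derived using the Loewe additivity model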
Protocol: as §3

Structure (SMILES): CC[C@H](C)C[C@H](C)CCCCCCCCC(=O)N[C@H]1C[C@@H](O)[C@@H](NCCN)NC(=O)[C@@H]2[C@@H](O)CCN2C(=O)[C@H]([C@H](O)CCN)NC(=O)[C@H]([C@H](O)[C@@H](O)c2ccc(O)cc2)NC(=O)[C@@H]2C[C@@H](O)CN2C(=O)[C@H]([C@@H](C)O)NC1=O [CAS, caspofungin]
- MIC / MEC (Cryptococcus tetragattii [1]): 8 µg/mL (≈ 7.32 µM)
- MIC / MEC [2]: 16 µg/mL (≈ 14.6 µM)
- MIC / MEC (Fusarium oxysporum): >16 µg/mL
- MIC / MEC (Lomentospora prolificans [3]): >16 µg/mL
- MIC / MEC (Pichia kudriavzevii [4]): 1 µg/mL (≈ 0.915 µM)
- MIC / MEC (Candida auris [5]): 4 µg/mL (≈ 3.66 µM)
- MIC / MEC (Candida parapsilosis): 1 µg/mL (≈ 0.915 µM)
- MIC / MEC (Candida tropicalis [6]): 0.06 µg/mL (≈ 0.0549 µM)
- MIC / MEC (Candida dubliniensis [7]): 0.06 µg/mL (≈ 0.0549 µM)
- MIC / MEC (Aspergillus udagawae [8]): 2 µg/mL (≈ 1.83 µM)
- MIC / MEC (Aspergillus felis [9]): 0.25 µg/mL (≈ 0.229 µM)
- MIC / MEC (Epidermophyton floccosum): 0.13 µg/mL (≈ 0.119 µM)
- MIC / MEC (Paraphyton cookei [10]): 0.25 µg/mL (≈ 0.229 µM)
- MIC / MEC (Nannizzia nana [11]): 0.13 µg/mL (≈ 0.119 µM)
- antifungal MICc (Mucor circinelloides; in combination with 10-ZOL): 128
- antifungal MICc (Mucor circinelloides; in combination with ZOL): 16
- antifungal MICc (Rhizopus oryzae; in combination with 10-ZOL): 128
- antifungal MICc (Rhizopus oryzae; in combination with ZOL): 4
- antifungal MICc ([12]; in combination with 10-ZOL): 2
- antifungal MICc ([12]; in combination with ZOL): 8
- antifungal MICc (Cryptococcus tetragattii [13]; in combination with 10-ZOL): 1
- antifungal MICc (Cryptococcus tetragattii [13]; in combination with ZOL): 16
- antifungal MICc (Fusarium solani; in combination with 10-ZOL): 16
- antifungal MICc (Fusarium solani; in combination with ZOL): 64
- antifungal MICc (Pichia kudriavzevii [14]; in combination with 10-ZOL): 0.5
- antifungal MICc (Pichia kudriavzevii [14]; in combination with ZOL): 0.5
- antifungal MICc (Candida auris [15]; in combination with 10-ZOL): 0.5
- antifungal MICc (Candida auris [15]; in combination with ZOL): 4
- antifungal MICc (Candida tropicalis [16]; in combination with 10-ZOL): 0.25
- antifungal MICc (Candida tropicalis [16]; in combination with ZOL): 0.02
- antifungal MICc (Candida dubliniensis [17]; in combination with 10-ZOL): 0.063
- antifungal MICc (Candida dubliniensis [17]; in combination with ZOL): 0.01
- antifungal MICc (Aspergillus terreus; in combination with 10-ZOL): 2
- antifungal MICc (Aspergillus terreus; in combination with ZOL): 2
- antifungal MICc (Aspergillus udagawae [18]; in combination with 10-ZOL): 1
- antifungal MICc (Aspergillus udagawae [18]; in combination with ZOL): 2
- antifungal MICc (Aspergillus lentulus; in combination with 10-ZOL): 4
- antifungal MICc (Aspergillus lentulus; in combination with ZOL): 2
- antifungal MICc (Aspergillus felis [19]; in combination with 10-ZOL): 0.5
- antifungal MICc (Aspergillus felis [19]; in combination with ZOL): 0.5
- antifungal MICc (Microsporum canis [20]; in combination with 10-ZOL): 0.25
- antifungal MICc (Microsporum canis [20]; in combination with ZOL): 0.125
- antifungal MICc (Nannizzia nana [21]; in combination with 10-ZOL): 0.25
- antifungal MICc (Nannizzia nana [21]; in combination with ZOL): 0.033
- MIC / MEC (Microsporum canis [22]): 0.25 µg/mL (≈ 0.229 µM)
- MIC / MEC (Trichophyton tonsurans): 0.5 µg/mL (≈ 0.457 µM)
- antifungal MICc (Lomentospora prolificans [23]; in combination with 10-ZOL): 128
- antifungal MICc (Lomentospora prolificans [23]; in combination with ZOL): 64
- antifungal MICc (Aspergillus parafelis; in combination with 10-ZOL): 0.5
- antifungal MICc (Aspergillus parafelis; in combination with ZOL): 0.065
- antifungal MICc (Paraphyton cookei [24]; in combination with 10-ZOL): 0.25
- antifungal MICc (Paraphyton cookei [24]; in combination with ZOL): 0.125
- antifungal MICc (Nannizzia gypsea; in combination with 10-ZOL): 0.25
- antifungal MICc (Nannizzia gypsea; in combination with ZOL): 0.5
